Reference: US20210380548A1, “Fused [1,2,4]Thiadiazine Derivatives Which Act as KAT Inhibitors of the MYST Family” (CTxT Pty Limited, priority 2017, published 2021)

Key:
HBO-KAT7 [1] = target: T1, HBO-KAT7 (Homo sapiens, UniProt O95251); experiment: Acetyltransferase biochemical assay (AlphaScreen), KAT7; conditions: Table 3 (HBO-KAT7); 0.4 μM Acetyl coenzyme A, histone H3.1, 40 nM enzyme
T1 construct: encoding amino acid residues 325 to 611 (Uniprot 095251-1) of human KAT7; made in house; host or cells: E. coli BL21 DE3 RIL
T1 sequence (O95251 with tags, fused parts or gaps): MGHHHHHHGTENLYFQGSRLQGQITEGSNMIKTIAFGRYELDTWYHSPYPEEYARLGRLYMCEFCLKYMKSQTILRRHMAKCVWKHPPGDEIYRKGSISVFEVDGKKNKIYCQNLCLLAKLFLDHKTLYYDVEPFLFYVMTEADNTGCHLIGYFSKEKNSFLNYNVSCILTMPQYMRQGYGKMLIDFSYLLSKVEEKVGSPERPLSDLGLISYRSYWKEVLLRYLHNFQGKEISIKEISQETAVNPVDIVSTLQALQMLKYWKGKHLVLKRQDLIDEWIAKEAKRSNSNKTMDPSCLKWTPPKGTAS

[2] = system: histone H3K14 acetylation (HBO1 mediated) in U2OS cells; experiment: Histone H3 Lysine 14 Acetylation Biomarker Assay (96 well, U2OS); assay type: cell-based; conditions: Table 6, H3K14ac, 24 hours incubation, serum free medium
Description: Compounds may be tested for their ability to inhibit acetylation of the histone H3K14 marker (which is HBO1 mediated) in the following assay:
(§1) The cell line U2OS was seeded at a density of 12,000 cells per well in 96 well optical quality tissue culture plates in RPMI medium and 10% foetal bovine serum, and allowed to adhere for 24 hours under standard culture conditions (37 degree Celsius, 5% CO2). At the end of this period the cells were washed with serum free medium. Compound dilutions prepared in DMSO were added to the serum free medium, with negative control wells reserved for treatment with DMSO only and positive controls receiving a potent inhibitor compound (e.g. Example 36 in WO2016/198507) at 10 μM concentration. After incubation for 24 hours, the cells were fixed with 3.7% formaldehyde in PBS for 20 minutes at room temperature, washed with phosphate buffer saline containing 0.1% Tween 20 and blocked with Odyssey blocking buffer (LI-COR, Lincoln, Nebr.) containing 0.1% TritonX100. Anti-H3K14ac specific antibody (Cell Signalling Technologies) in Odyssey blocking buffer containing 0.1% Tween 20 was added and incubated for 14 hours at 4 degree Celsius. After washing, a secondary antibody labelled with Alexa647 dye (LifeTechnologies) and Hoechst 33342 (1 μg/mL, SigmaAldrich) were added for 1 hour incubation. Plates were washed and read on a PerkinElmer Phenix high content imaging platform. Using a Columbus image analysis pipeline, individual nuclei were located by Hoechst 33342 stain and the acetylation level was calculated from the Alexa647-related intensity in the same area. The resulting mean intensity per cell was directly converted to percent inhibition relative to controls on the same plate and the data fitted against a four-parameter logistic model to determine the 50% inhibitory concentration (IC50).

TIP60-KAT5 [3] = target: T2, TIP60-KAT5 (Homo sapiens, UniProt Q92993); experiment: Acetyltransferase biochemical assay (AlphaScreen), KAT5; conditions: Table 1 (TIP60-KAT5); 0.4 μM Acetyl coenzyme A, histone H4, 10 nM enzyme
T2 construct: encoding amino acid residues 2 to 461 (Uniprot Q92993-2) of human KAT5 isoform; made in house; host or cells: E. coli BL21 DE3
T2 sequence (Q92993 2-461 isoform Q92993-2): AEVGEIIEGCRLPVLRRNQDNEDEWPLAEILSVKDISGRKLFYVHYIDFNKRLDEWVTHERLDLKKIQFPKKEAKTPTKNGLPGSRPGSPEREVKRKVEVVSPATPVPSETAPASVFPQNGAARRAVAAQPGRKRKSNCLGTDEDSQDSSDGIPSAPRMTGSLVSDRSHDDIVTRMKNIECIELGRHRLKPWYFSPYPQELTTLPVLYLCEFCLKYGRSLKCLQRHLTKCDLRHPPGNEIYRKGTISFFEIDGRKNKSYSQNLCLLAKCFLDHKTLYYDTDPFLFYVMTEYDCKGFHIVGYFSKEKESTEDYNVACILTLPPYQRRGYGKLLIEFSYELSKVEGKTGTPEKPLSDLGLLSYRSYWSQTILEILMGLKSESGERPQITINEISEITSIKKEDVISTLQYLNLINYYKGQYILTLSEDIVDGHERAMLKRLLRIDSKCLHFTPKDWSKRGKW

MOZ-KAT6A [4] = target: T3, MOZ-KAT6A (Homo sapiens, UniProt Q92794, A567V); experiment: Acetyltransferase biochemical assay (AlphaScreen), KAT6A; conditions: Table 2 (MOZ-KAT6A); 10 μM Acetyl coenzyme A, histone H3.1, 5 nM enzyme
T3 construct: encoding amino acid residues 507 to 778 (Uniprot Q92794-1) of human KAT6A; made in house; host or cells: E. coli BL21 DE3
T3 sequence (Q92794 507-778 A567V limits assumed): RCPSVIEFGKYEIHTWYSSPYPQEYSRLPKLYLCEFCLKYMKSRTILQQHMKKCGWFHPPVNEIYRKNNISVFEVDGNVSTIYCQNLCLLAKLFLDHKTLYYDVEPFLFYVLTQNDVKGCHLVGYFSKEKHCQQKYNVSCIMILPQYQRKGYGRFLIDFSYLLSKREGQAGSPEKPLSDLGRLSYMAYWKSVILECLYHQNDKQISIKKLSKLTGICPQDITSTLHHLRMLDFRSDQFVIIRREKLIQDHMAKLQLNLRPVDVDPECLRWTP

MOF-KAT8 [5] = target: T4, MOF-KAT8 (Homo sapiens, UniProt Q9H7Z6); experiment: Acetyltransferase biochemical assay (AlphaScreen), KAT8; conditions: Table 4 (MOF-KAT8); 0.4 μM Acetyl coenzyme A, histone H4, 20 nM enzyme
T4 sequence (Q9H7Z6 177-447): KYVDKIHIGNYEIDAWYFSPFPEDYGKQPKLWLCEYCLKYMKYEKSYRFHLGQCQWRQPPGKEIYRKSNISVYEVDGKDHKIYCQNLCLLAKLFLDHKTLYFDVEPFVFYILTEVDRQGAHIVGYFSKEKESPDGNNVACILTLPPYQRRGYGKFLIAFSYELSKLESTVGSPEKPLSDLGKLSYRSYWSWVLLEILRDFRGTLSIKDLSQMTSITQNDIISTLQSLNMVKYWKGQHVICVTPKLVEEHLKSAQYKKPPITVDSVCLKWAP

[6] = system: histone H2A.Z Lysine 7 acetylation (TIP60 mediated) in U2OS cells; experiment: H2A.Z Lysine 7 Acetylation Biomarker Assay (96 well, U2OS); assay type: cell-based; conditions: Table 7, H2A.Z K7ac, 24 hours incubation, serum free medium
Description: To discover a global TIP60/KAT5 cellular biomarker useful for monitoring PD responses of TIP60 inhibition in vitro and in vivo, various histone modifications were assessed for TIP60 dependence through genetic (TIP60 siRNA and CRISPR/Cas9) or TIP60 pharmacological inhibition. This analysis clearly identified acetylation of the histone variant H2A.Z at Lysine 7 (H2A.ZK7ac) as a global histone mark which is TIP60-dependent in both human and mouse cells. To a lesser extent, TIP60 also acetylated lysine 4 and 11 of H2A.Z.
Compounds may be tested for their ability to inhibit the histone H2A.Z Lysine 7 acetylation biomarker (which is TIP60 mediated) in the following assay:
as §1, with “of 9,000” for “of 12,000”, “Example 146)” for “Example 36 in WO2016/198507)”, “at 20” for “at 10”, “TritonX100. Anti-H2A.Z K7ac” for “TritonX100. Anti-H3K14ac”, “antibody (Abcam)” for “antibody (Cell Signalling Technologies)”, “33342 (10 μM,” for “33342 (1 μg/mL,”

MOF-KAT8 [7] = target: T4, MOF-KAT8; experiment: Revised Acetyltransferase Biochemical Assay, KAT8
TIP60-KAT5 [8] = target: T2, TIP60-KAT5; experiment: Revised Acetyltransferase Biochemical Assay, KAT5; conditions: 10 nM KAT5, 1 μM AcCoA, 100 nM histone H4, 90 min
MOZ-KAT6A [9] = target: T3, MOZ-KAT6A; experiment: Revised Acetyltransferase Biochemical Assay, KAT6A; conditions: Table 8 (MOZ-KAT6A), 1 μM Acetyl coenzyme A
HBO-KAT7 [10] = target: T1, HBO-KAT7; experiment: Revised Acetyltransferase Biochemical Assay, KAT7; conditions: Table 9 (HBO-KAT7), 1 μM Acetyl coenzyme A
[11] = system: histone H3K23 acetylation (KATE mediated) in U2OS cells; experiment: Histone H3 Lysine 23 Acetylation Biomarker Assay (U2OS); assay type: cell-based; conditions: 96 well, 24 hours incubation
In short: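 U2OS cells were treated with compound for 24 h, then fixed and immunostained for H3K23ac with Hoechst nuclear counterstain. Per-nucleus Alexa647 intensity was quantified by high-content imaging and converted to % inhibition against DMSO and 10 μM reference-inhibitor controls. IC50 was derived from a four-parameter logistic fit.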

QKF-KAT6B [12] = target: T5, QKF-KAT6B (Homo sapiens, UniProt Q8WYB5); experiment: Revised Acetyltransferase Biochemical Assay, KAT6B; conditions: 8 nM KAT6B, 1 μM AcCoA, 100 nM histone H3.1, 90 min
T5 construct: purchased SignalChem K315-381BG
T5 sequence (Q8WYB5 whole entry): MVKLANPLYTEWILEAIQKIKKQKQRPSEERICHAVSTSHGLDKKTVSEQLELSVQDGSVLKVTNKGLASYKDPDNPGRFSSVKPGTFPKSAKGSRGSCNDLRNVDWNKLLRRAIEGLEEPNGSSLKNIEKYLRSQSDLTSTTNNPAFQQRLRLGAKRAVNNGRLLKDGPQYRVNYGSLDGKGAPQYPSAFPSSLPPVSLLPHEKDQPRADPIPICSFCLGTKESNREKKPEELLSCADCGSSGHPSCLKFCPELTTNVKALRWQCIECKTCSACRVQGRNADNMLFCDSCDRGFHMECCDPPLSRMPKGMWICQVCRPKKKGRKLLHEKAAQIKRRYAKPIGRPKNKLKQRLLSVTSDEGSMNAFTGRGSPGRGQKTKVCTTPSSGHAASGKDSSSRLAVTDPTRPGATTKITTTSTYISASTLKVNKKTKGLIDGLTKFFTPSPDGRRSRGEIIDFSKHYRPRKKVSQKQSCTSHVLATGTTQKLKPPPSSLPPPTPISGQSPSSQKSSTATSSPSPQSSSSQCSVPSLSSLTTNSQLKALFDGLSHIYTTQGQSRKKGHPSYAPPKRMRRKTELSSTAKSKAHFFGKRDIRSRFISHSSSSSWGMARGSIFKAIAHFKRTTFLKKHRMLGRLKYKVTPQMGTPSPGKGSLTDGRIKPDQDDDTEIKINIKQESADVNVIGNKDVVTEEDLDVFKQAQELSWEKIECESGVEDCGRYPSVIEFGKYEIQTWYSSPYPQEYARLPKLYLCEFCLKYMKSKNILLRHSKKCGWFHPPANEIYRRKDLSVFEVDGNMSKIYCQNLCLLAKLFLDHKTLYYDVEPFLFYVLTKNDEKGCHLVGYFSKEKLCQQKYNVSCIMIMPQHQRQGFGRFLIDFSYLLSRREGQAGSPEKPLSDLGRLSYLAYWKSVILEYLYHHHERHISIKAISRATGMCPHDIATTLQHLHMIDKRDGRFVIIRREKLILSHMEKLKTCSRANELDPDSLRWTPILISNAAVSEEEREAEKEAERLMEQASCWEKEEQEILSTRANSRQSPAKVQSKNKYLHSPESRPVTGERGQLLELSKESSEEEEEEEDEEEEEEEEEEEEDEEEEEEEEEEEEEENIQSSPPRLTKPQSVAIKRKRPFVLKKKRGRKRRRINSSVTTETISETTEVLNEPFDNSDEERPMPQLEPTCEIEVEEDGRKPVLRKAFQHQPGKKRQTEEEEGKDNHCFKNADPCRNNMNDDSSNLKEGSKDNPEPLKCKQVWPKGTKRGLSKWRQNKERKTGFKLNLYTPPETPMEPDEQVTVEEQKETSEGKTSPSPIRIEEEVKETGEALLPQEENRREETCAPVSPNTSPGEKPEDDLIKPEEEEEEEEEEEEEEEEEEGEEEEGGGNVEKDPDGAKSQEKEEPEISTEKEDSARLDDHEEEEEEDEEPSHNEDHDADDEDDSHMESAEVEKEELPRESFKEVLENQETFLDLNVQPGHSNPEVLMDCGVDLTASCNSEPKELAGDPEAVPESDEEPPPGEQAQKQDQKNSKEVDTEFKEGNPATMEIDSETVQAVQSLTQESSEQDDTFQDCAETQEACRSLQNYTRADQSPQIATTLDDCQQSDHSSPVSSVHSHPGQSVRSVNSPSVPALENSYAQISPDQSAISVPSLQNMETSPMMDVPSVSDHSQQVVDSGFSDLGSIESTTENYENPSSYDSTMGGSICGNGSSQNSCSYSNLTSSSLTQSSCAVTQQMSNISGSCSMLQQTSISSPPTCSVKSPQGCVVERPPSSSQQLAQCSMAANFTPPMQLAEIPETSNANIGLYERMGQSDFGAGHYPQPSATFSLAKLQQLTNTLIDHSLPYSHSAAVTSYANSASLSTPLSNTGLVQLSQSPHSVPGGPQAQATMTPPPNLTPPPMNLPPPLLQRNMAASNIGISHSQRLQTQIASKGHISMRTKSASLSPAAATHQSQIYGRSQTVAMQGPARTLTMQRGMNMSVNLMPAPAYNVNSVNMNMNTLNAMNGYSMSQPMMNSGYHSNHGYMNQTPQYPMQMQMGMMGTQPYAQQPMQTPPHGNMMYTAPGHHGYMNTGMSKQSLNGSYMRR
Source text: KAT6B was obtained from SignalChem, catalog ID: K315-381BG

QKF-KAT6B [13] = target: T5, QKF-KAT6B; experiment: Acetyltransferase biochemical assay (AlphaScreen), KAT6B; conditions: Table 5 (QKF-KAT6B); 0.4 μM Acetyl coenzyme A, histone H3.1, 8 nM enzyme

| SMILES | IC50 (HBO-KAT7 [1]) [nM] | IC50 [2] [nM] | IC50 (TIP60-KAT5 [3]) [nM] | IC50 (MOZ-KAT6A [4]) [nM] | IC50 (MOF-KAT8 [5]) [nM] | IC50 ([6]; Homo sapiens) [nM] | IC50 [6] [nM] | IC50 (MOF-KAT8 [7]; read-out: IC50 (MOF-KAT8), Revised acetyltransferase biochemical assay, 20 nM KAT8, 1 μM AcCoA, 100 nM histone H4, 90 min) [nM] | IC50 (TIP60-KAT5 [8]) [nM] | IC50 (MOZ-KAT6A [9]) [nM] | IC50 (HBO-KAT7 [10]) [nM] | IC50 [11] [nM] | IC50 (QKF-KAT6B [12]) [nM] | IC50 (MOF-KAT8 [7]) [nM] | IC50 (QKF-KAT6B [13]) [nM] | IC50 ([2]; Homo sapiens, 24 h) [nM] | IC50 ([11]; Homo sapiens, U2OS, 24 h) [nM] | IC50 ([6]; Homo sapiens, 24 h) [nM] |
| --- | --- | --- | --- | --- | --- | --- | --- | --- | --- | --- | --- | --- | --- | --- | --- | --- | --- | --- |
| O=C(NCC(c1ccccc1)c1ncco1)C1=Nc2ccccc2S(=O)(=O)N1 (single isomer, unassigned) [Example 137] | 913 | 2450 | 3080 | 107 | 100000 | 10000 |  |  |  |  |  |  |  |  |  |  |  |  |
| O=C(NCC(c1ccccc1)c1ncco1)C1=Nc2ccc(Br)cc2S(=O)(=O)N1 (single isomer, unassigned) [Example 138] | 234 | 145 | 95.2 |  | 8070 |  | 1460 |  |  |  |  |  |  |  |  |  |  |  |
| O=C(NCC(c1ccccc1)c1ncco1)C1=Nc2ccc(Br)cc2S(=O)(=O)N1 (single isomer, unassigned) [Example 139] | 61.5 | 263 | 1300 | 464 | 19100 |  | 5050 | 75800 | 707 | 100 | 184 |  |  |  |  |  |  |  |
| O=C(NCC(c1ccccc1)c1ncco1)C1=Nc2ccc(I)cc2S(=O)(=O)N1 (single isomer, unassigned) [Example 146, 7-iodo-N-(2-(oxazol-2-yl)-2-phenylethyl)-2H-benzo[e][1,2,4]thiadiazine-3-carboxamide 1,1-dioxide] | 160 | 429 | 46.8 | 25.9 |  |  | 447 |  | 13 | 2 | 36 | 16 | 19 |  |  |  |  |  |
| O=C(NCC(c1ccccc1)c1ncco1)C1=Nc2ccc(I)cc2S(=O)(=O)N1 (single isomer, unassigned) [Example 147] | 167 | 193 | 445 | 645 |  |  | 1430 |  | 132 | 29 | 57 | 482 | 311 |  |  |  |  |  |
| COC(=O)c1ccccc1CCNC(=O)C1=Nc2ccc(I)cc2S(=O)(=O)N1 [Example 12, Methyl 2-(2-(7-iodo-1,1-dioxido-2H-benzo[e][1,2,4]thiadiazine-3-carboxamido)ethyl)benzoate] | 5870 |  | 2620 |  |  | 26800 |  |  |  |  |  |  |  |  |  |  |  |  |
| O=C(NCCc1ccccc1-c1ncco1)C1=Nc2ccc(I)cc2S(=O)(=O)N1 [Example 13, 7-Iodo-N-(2-(oxazol-2-yl)phenethyl)-2H-benzo[e][1,2,4]thiadiazine-3-carboxamide 1,1-dioxide] | 981 |  | 727 | 229 |  | 5780 |  |  | 111 | 10 | 128 |  |  | 36400 |  |  |  |  |
| Cn1cc(-c2ccc3c(c2)S(=O)(=O)NC(C(=O)NCC(c2ccccc2)c2ccccc2)=N3)cn1 [Example 18, N-(2,2-diphenylethyl)-7-(1-methyl-1H-pyrazol-4-yl)-2H-benzo[e][1,2,4]thiadiazine-3-carboxamide 1,1-dioxide] |  |  | > 125000 | 3120 |  |  |  |  |  |  |  |  |  |  | 268 |  |  |  |
| O=C(NCC(c1ccccc1)c1ncco1)C1=Nc2ccc(I)cc2S(=O)(=O)N1 (stereo not shown) [Example 41, 7-iodo-N-(2-(oxazol-2-yl)-2-phenylethyl)-2H-benzo[e][1,2,4]thiadiazine-3-carboxamide 1,1-dioxide] | 94.4 |  | 61.3 | 17.9 |  |  |  |  | 32 | 5 | 59 |  | 28 |  |  | 86.1 | 35 | 1000 |
| COc1cccc(CCNC(=O)C2=Nc3ccc(I)cc3S(=O)(=O)N2)c1 [Example 101] | > 125000 |  | > 125000 | 10200 |  | 30000 |  |  |  |  |  |  |  |  |  | 30000 |  |  |
| O=C(NCC(O)c1cccc(OCc2ccccc2)c1)C1=Nc2ccc(I)cc2S(=O)(=O)N1 (stereo not shown) [Example 122] | > 125000 |  | > 125000 |  |  | 10000 |  |  |  |  |  |  |  |  |  |  |  |  |
